# Experimental data as given in patent publication US8444858B2, “Control of development of biofilms in industrial process water” (A.Y. Laboratories Ltd., priority 2001, dated 2013).
# Marks after values point to notes of the source that are not given here.
# Assays:
# [1] = test system: biofilm; assay: Pilot plant wastewater pipes, difference in Hazen-Williams coefficient treated vs control pipe; conditions: for HW Diff. treated pipe - Control: single 3 h treatment on day 1 at 10 ppm as total chlorine
# Method: Treated wastewater was pumped through several pipes of 10 m length and 4 inches inner diameter in a pilot plant. […] Pressure drop through each pipe was monitored on-line, and average HW coefficients were calculated.
# The biofilm inhibiting substance in this example was produced as follows, using a small feeding system was built specifically for this trial. […] The concentration of the biofilm inhibiting substance pre-injection solution was ˜3600 ppm and the pH was 9.2-9.6. […]
# [2] = De-inking plant field trial, residual H2O2, residual biofilm inhibiting substance and H2O2 consumption
# Method: A de-inking system had been using 7-10 kg H2O2 per ton of waste paper.
# The reaction pH was Maintained at 9.8-10.0. The Production process was controlled to ensure synchronous metering of the two chemicals, continuous mixing at the predetermined molar ratio and reproducible production of a stable biofilm inhibiting substance stock solution for the duration of the trial and longer. […] After 850 minutes the dosing rate was reduced to 85 g/ton expressed as total Cl2 by feeding the biofilm inhibiting substance semi-continuously. Various parameters were monitored during start-up of the trial: Residual biofilm inhibiting substance was measured (using a Hach pocket colorimeter, total Cl2, based on the DPD method adapted from Standard Methods for Examination of Waste and Waste Water). […] When necessary, samples were diluted with DI water.
# [3] = test system: mixed culture of slime-forming-bacteria which had been isolated from a paper machine; assay: Formation of biofilm on stainless steel coupons in a model system (viable counts in medium and on coupons); type: cell-based
# Method: Formation of biofilm on stainless steel coupons in the presence or absence of an oxidizing biocide or a biofilm inhibiting substance was evaluated in the laboratory. The test system consisted of (a) three closed flasks each containing 20 L nutrient-rich medium (diluted three-fold from its recommended use concentration), (b) three closed cells containing stainless steel coupons hanging freely, and (c) three identical circulation pumps, each pump connected via plastic pipes to one of the flasks and to one of the cells. The system was placed in a thermostatic room at 35° C.
# An innoculum containing a mixed culture of slime-forming-bacteria which had been isolated from a paper machine was added to each of the flasks. An oxidizer containing a 5 ppm mixture (expressed as total Cl2) of bromochlorodimethylhydantoin (an oxidizing biocide which is a source of HOBr and HOCl) (hereinafter “mixed halogens”) was added to the first flask once a day for the duration of the trial (4 days). […] The third flask served as a control for the two flasks treated with the oxidizing biocide or biofilm inhibiting substances. […] A diluted solution of sodium hypochlorite in deionized (DI) water (˜8000 ppm as total chlorine) was fed with one pump; a diluted solution of ammonium bromide (12500 ppm) was fed with the second pump. The two diluted solutions were synchronously mixed in a short glass pipe to form a pre-injection solution of biofilm inhibiting substance, using a pH meter to control and check the stability of the biofilm inhibiting substance formed. The biofilm inhibiting substance was fed to the test system immediately as it was produced.
# On days 2 and 4, each closed cell was opened and 2 coupons were aseptically removed from each cell. At the same time samples of the circulating medium were taken as well. Sampling was conducted after feeding the daily slug dose of biocide.
# Each sample of medium was serially 10-fold diluted in sterile saline solution and plated in molten agar. Each coupon was thoroughly rinsed to remove any adhered particles, aseptically scraped, and the material removed by scraping was quantitatively dispersed in saline solution, vortexed, serially 10-fold diluted and plated in molten agar. Viable counts of microorganisms were taken after 48 h of incubation at 35° C. Viable counts of cells in the medium are presented as colony forming units (cfu) per ml; viable counts on the coupon surfaces are presented as cfu/cm^2.
substance,measurement,setting,value
bromide activated chloramine [Fuzzicide BAC],HW Diff. treated pipe - Control,[1]; day 1,14.3
same,"HW Difference, Fuzzicide BAC - Control","[1]; day 1 of trial (treatment day), 10 ppm as total chlorine for 3 h three times a week",10.12
same,HW Diff. treated pipe - Control,[1]; day 2,13.7
same,"HW Difference, Fuzzicide BAC - Control","[1]; day 2 of trial, 10 ppm as total chlorine for 3 h three times a week",11.25
same,HW Diff. treated pipe - Control,[1]; day 3,12.8
same,"HW Difference, Fuzzicide BAC - Control","[1]; day 3 of trial, 10 ppm as total chlorine for 3 h three times a week",11.62
same,HW Diff. treated pipe - Control,[1]; day 4,16.5
same,"HW Difference, Fuzzicide BAC - Control","[1]; day 4 of trial, 10 ppm as total chlorine for 3 h three times a week",13.04
same,HW Diff. treated pipe - Control,[1]; day 5,16.0
same,"HW Difference, Fuzzicide BAC - Control","[1]; day 5 of trial (treatment day), 10 ppm as total chlorine for 3 h three times a week",12.35
same,HW Diff. treated pipe - Control,[1]; day 6,16.55
same,"HW Difference, Fuzzicide BAC - Control","[1]; day 6 of trial, 10 ppm as total chlorine for 3 h three times a week",13.76
same,HW Diff. treated pipe - Control,[1]; day 7,15.8
same,"HW Difference, Fuzzicide BAC - Control","[1]; day 7 of trial, 10 ppm as total chlorine for 3 h three times a week",15.13
same,HW Diff. treated pipe - Control,[1]; day 8,14.3
same,HW Diff. treated pipe - Control,[1]; day 9,16.9
same,HW Diff. treated pipe - Control,[1]; day 10,15.3
same,HW Diff. treated pipe - Control,[1]; day 11,16.0
same,HW Diff. treated pipe - Control,[1]; day 12,18.1
same,HW Diff. treated pipe - Control,[1]; day 13,17.2
same,HW Diff. treated pipe - Control,[1]; day 14,15.0
same,HW Diff. treated pipe - Control,[1]; day 15,11.9
same,HW Diff. treated pipe - Control,[1]; day 16,9.1
same,HW Diff. treated pipe - Control,[1]; day 17,7.3
same,HW Diff. treated pipe - Control,[1]; day 18,7.2
same,"HW Difference, Fuzzicide BAC - Control","[1]; day 26 of trial, between days 7 and 26 the biocide was improperly prepared, rendering it ineffective",6.11
same,"HW Difference, Fuzzicide BAC - Control","[1]; day 27 of trial (treatment day), 10 ppm as total chlorine for 3 h three times a week",6.67
same,"HW Difference, Fuzzicide BAC - Control","[1]; day 28 of trial, 10 ppm as total chlorine for 3 h three times a week",7.13
same,"HW Difference, Fuzzicide BAC - Control","[1]; day 29 of trial (treatment day), 10 ppm as total chlorine for 3 h three times a week",8.75
same,"HW Difference, Fuzzicide BAC - Control","[1]; day 30 of trial, 10 ppm as total chlorine for 3 h three times a week",8.93
same,"HW Difference, Fuzzicide BAC - Control","[1]; day 31 of trial, 10 ppm as total chlorine for 3 h three times a week",8.93
same,"HW Difference, Fuzzicide BAC - Control","[1]; day 32 of trial, 10 ppm as total chlorine for 3 h three times a week",9.02
same,"HW Difference, Fuzzicide BAC - Control","[1]; day 33 of trial (treatment day), 10 ppm as total chlorine for 3 h three times a week",8.89
same,"HW Difference, Fuzzicide BAC - Control","[1]; day 34 of trial, 10 ppm as total chlorine for 3 h three times a week",8.93
same,"HW Difference, Fuzzicide BAC - Control","[1]; day 35 of trial, 10 ppm as total chlorine for 3 h three times a week",9.12
same,"HW Difference, Fuzzicide BAC - Control","[1]; day 36 of trial (treatment day), 10 ppm as total chlorine for 3 h three times a week",10.31
same,"HW Difference, Fuzzicide BAC - Control","[1]; day 37 of trial, 10 ppm as total chlorine for 3 h three times a week",9.96
same,"HW Difference, Fuzzicide BAC - Control","[1]; day 38 of trial, 10 ppm as total chlorine for 3 h three times a week",13.97
same,H2O2 feed rate maintaining de-inking bleaching targets,[2]; after a few more days of semi-continuous dosing,~2.2 kg/ton
same,feed rate of H2O2 needed in order to maintain bleaching set point,"[2]; after about 48 hours of semi-continuous dosing, before trial 7-10 kg H2O2 per ton of waste paper",~4 kg/ton
same,state of coupons,[3]; after 2 days,remained clean
same,state of coupons,[3]; after 4 days,remained clean
same,control of planktonic microorganisms,"[3]; medium sample after four days, within detection limits",complete control of planktonic microorganisms
same,"Viable Counts After 2 Days, medium","[3]; planktonic cells in circulating medium, day 2, daily slug dose (Mixed Halogens 5 ppm, Fuzzicide BAC […] expressed as Cl2), 35° C.",1 × 10^6 cfu/ml
same,"Viable Counts After 4 Days, medium","[3]; planktonic cells in circulating medium, day 4, daily slug dose (Mixed Halogens 5 ppm, Fuzzicide BAC […] expressed as Cl2)",<100* cfu/ml
same,"Viable Counts After 2 Days, coupon surfaces","[3]; stainless steel coupons, day 2, daily slug dose (Mixed Halogens 5 ppm, Fuzzicide BAC […] expressed as Cl2)",<27* cfu/cm^2
same,"Viable Counts After 4 Days, coupon surfaces","[3]; stainless steel coupons, day 4, daily slug dose (Mixed Halogens 5 ppm, Fuzzicide BAC […] expressed as Cl2)",<27* Cfu/cm^2
